Measured values from ChEMBL document CHEMBL2074560, “cDNA cloning, functional characterization, and tissue distribution of an alternatively spliced variant of organic cation transporter hOCT2 predominantly expressed in the human kidney” (J Am Soc Nephrol, 2002).

Assays:
Format in all cases: functional, cell-based
[1] = target: T1, Solute carrier family 22 member 2 (Homo sapiens, UniProt O15244); assay: TP_TRANSPORTER: inhibition of TEA uptake (TEA: 5 uM, MPP+: 1000 uM) in OCT2A-expressing HEK293 cells; details: hek293, 1000 µM
T1 sequence (O15244 whole entry): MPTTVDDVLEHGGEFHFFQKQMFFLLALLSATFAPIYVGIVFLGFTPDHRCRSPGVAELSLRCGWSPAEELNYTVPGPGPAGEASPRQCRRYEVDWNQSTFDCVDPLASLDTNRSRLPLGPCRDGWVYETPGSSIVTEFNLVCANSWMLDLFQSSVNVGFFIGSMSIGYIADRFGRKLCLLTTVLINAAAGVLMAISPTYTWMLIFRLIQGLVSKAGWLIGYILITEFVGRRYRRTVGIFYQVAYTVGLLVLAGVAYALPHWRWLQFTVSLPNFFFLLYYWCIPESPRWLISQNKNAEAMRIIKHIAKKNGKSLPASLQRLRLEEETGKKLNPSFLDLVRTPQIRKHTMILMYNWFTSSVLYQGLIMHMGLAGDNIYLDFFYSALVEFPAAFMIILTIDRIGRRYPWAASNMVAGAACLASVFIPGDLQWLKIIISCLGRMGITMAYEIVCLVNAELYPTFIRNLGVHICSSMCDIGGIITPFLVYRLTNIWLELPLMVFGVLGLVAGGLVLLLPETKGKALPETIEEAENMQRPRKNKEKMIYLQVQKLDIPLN

[2] = target: T1, Solute carrier family 22 member 2; assay: TP_TRANSPORTER: uptake in OCT2A-expressing HEK293 cells
[3] = target: T1, Solute carrier family 22 member 2; assay: TP_TRANSPORTER: inhibition of TEA uptake (TEA: 5 uM, N-acetyl procainamide: 1000 uM) in OCT2A-expressing HEK293 cells; details: hek293, 1000 µM
[4] = target: T1, Solute carrier family 22 member 2; assay: TP_TRANSPORTER: inhibition of TEA uptake (TEA: 5 uM, N-acetyl procainamide: 1000 uM) in OCT2-expressing HEK293 cells; details: hek293, 1000 µM
[5] = target: T1, Solute carrier family 22 member 2; assay: TP_TRANSPORTER: inhibition of TEA uptake (TEA: 5 uM, Amantadine: 100 uM) in OCT2A-expressing HEK293 cells; details: hek293, 100 µM
[6] = target: T1, Solute carrier family 22 member 2; assay: TP_TRANSPORTER: inhibition of TEA uptake (TEA: 5 uM, Creatinine: 1000 uM) in OCT2-expressing HEK293 cells; details: hek293, 1000 µM
[7] = target: T1, Solute carrier family 22 member 2; assay: TP_TRANSPORTER: inhibition of TEA uptake (TEA: 5 uM, Creatinine: 1000 uM) in OCT2A-expressing HEK293 cells; details: hek293, 1000 µM
[8] = target: T1, Solute carrier family 22 member 2; assay: TP_TRANSPORTER: inhibition of TEA uptake (TEA: 5 uM, GPFX: 2500 uM) in OCT2-expressing HEK293 cells; details: hek293, 2500 µM
[9] = target: T1, Solute carrier family 22 member 2; assay: TP_TRANSPORTER: inhibition of TEA uptake (TEA: 5 uM, GPFX: 2500 uM) in OCT2A-expressing HEK293 cells; details: hek293, 2500 µM
[10] = target: T1, Solute carrier family 22 member 2; assay: TP_TRANSPORTER: uptake in OCT2-expressing HEK293 cells
[11] = target: T1, Solute carrier family 22 member 2; assay: TP_TRANSPORTER: inhibition of TEA uptake (TEA: 5 uM, Guanidine: 1000 uM) in OCT2A-expressing HEK293 cells; details: hek293, 1000 µM
[12] = target: T1, Solute carrier family 22 member 2; assay: TP_TRANSPORTER: inhibition of TEA uptake (TEA: 5 uM, Guanidine: 1000 uM) in OCT2-expressing HEK293 cells; details: hek293, 1000 µM
[13] = target: T1, Solute carrier family 22 member 2; assay: TP_TRANSPORTER: inhibition of TEA uptake (TEA: 5 uM, Imipramine: 1000 uM) in OCT2-expressing HEK293 cells; details: hek293, 1000 µM
[14] = target: T1, Solute carrier family 22 member 2; assay: TP_TRANSPORTER: inhibition of TEA uptake (TEA: 5 uM, Imipramine: 1000 uM) in OCT2A-expressing HEK293 cells; details: hek293, 1000 µM
[15] = target: T1, Solute carrier family 22 member 2; assay: TP_TRANSPORTER: inhibition of TEA uptake (TEA: 5 uM, Levofloxacin: 2500 uM) in OCT2A-expressing HEK293 cells; details: hek293, 2500 µM
[16] = target: T1, Solute carrier family 22 member 2; assay: TP_TRANSPORTER: inhibition of TEA uptake (TEA: 5 uM, Levofloxacin: 2500 uM) in OCT2-expressing HEK293 cells; details: hek293, 2500 µM
[17] = target: T1, Solute carrier family 22 member 2; assay: TP_TRANSPORTER: inhibition of TEA uptake (TEA: 5 uM, NMN: 1000 uM) in OCT2A-expressing HEK293 cells; details: hek293, 1000 µM
[18] = target: T1, Solute carrier family 22 member 2; assay: TP_TRANSPORTER: inhibition of TEA uptake (TEA: 5 uM, Noradrenaline: 1000 uM) in OCT2-expressing HEK293 cells; details: hek293, 1000 µM
[19] = target: T1, Solute carrier family 22 member 2; assay: TP_TRANSPORTER: inhibition of TEA uptake (TEA: 5 uM, Noradrenaline: 1000 uM) in OCT2A-expressing HEK293 cells; details: hek293, 1000 µM
[20] = target: T1, Solute carrier family 22 member 2; assay: TP_TRANSPORTER: inhibition of TEA uptake (TEA: 5 uM, Procainamide: 1000 uM) in OCT2-expressing HEK293 cells; details: hek293, 1000 µM
[21] = target: T1, Solute carrier family 22 member 2; assay: TP_TRANSPORTER: inhibition of TEA uptake (TEA: 5 uM, Procainamide: 1000 uM) in OCT2A-expressing HEK293 cells; details: hek293, 1000 µM
[22] = target: T1, Solute carrier family 22 member 2; assay: TP_TRANSPORTER: inhibition of TEA uptake (TEA: 5 uM, Serotonin: 1000 uM) in OCT2A-expressing HEK293 cells; details: hek293, 1000 µM
[23] = target: T1, Solute carrier family 22 member 2; assay: TP_TRANSPORTER: inhibition of TEA uptake (TEA: 5 uM, Serotonin: 1000 uM) in OCT2-expressing HEK293 cells; details: hek293, 1000 µM

C[n+]1ccc(-c2ccccc2)cc1
Activity [1]: inhibitor [(at a rough estimate) 5 % of control]
Activity [2]: substrate [+]

CCN(CC)CCNC(=O)c1ccc(NC(C)=O)cc1 [ACECAINIDE]
Activity [3]: inhibitor [(at a rough estimate) 15 % of control]
Activity [4]: is not an inhibitor [-]

NC12CC3CC(CC(C3)C1)C2 [AMANTADINE]
Activity [5]: inhibitor [(at a rough estimate) 5 % of control]

CN/C(=N/CCSCc1nc[nH]c1C)NC#N [CIMETIDINE]
Activity [2]: is not a substrate [-]

CN1CC(=O)NC1=N [CREATININE]
Activity [6]: inhibitor [(at a rough estimate) 80 % of control]
Activity [7]: inhibitor [(at a rough estimate) 95 % of control]

Cc1c(F)c(N2CCNC(C)C2)cc2c1c(=O)c(C(=O)O)cn2C1CC1 (centres undefined) [GREPAFLOXACIN]
Activity [8]: inhibitor [(at a rough estimate) 30 % of control]
Activity [9]: inhibitor [(at a rough estimate) 5 % of control]

N=C(N)N [GUANIDINE]
Activity [10]: substrate [+]
Activity [11]: inhibitor [(at a rough estimate) 80 % of control]
Activity [2]: is not a substrate [-]
Activity [12]: inhibitor [(at a rough estimate) 60 % of control]

CN(C)CCCN1c2ccccc2CCc2ccccc21 [IMIPRAMINE]
Activity [13]: inhibitor [(at a rough estimate) 10 % of control]
Activity [14]: inhibitor [(at a rough estimate) 5 % of control]

C[C@H]1COc2c(N3CCN(C)CC3)c(F)cc3c(=O)c(C(=O)O)cn1c23.C[C@H]1COc2c(N3CCN(C)CC3)c(F)cc3c(=O)c(C(=O)O)cn1c23.O [LEVOFLOXACIN]
Activity [15]: inhibitor [(at a rough estimate) 25 % of control]
Activity [16]: is not an inhibitor [-]
Activity [10]: is not a substrate [-]
Activity [2]: is not a substrate [-]

CNC(=O)c1cccnc1 [NICOTINYL METHYLAMIDE]
Activity [17]: inhibitor [(at a rough estimate) 30 % of control]

NC[C@H](O)c1ccc(O)c(O)c1 [NOREPINEPHRINE]
Activity [18]: inhibitor [(at a rough estimate) 65 % of control]
Activity [19]: is not an inhibitor [-]

CCN(CC)CCNC(=O)c1ccc(N)cc1 [PROCAINAMIDE]
Activity [20]: is not an inhibitor [-]
Activity [21]: inhibitor [(at a rough estimate) 15 % of control]

NCCc1c[nH]c2ccc(O)cc12 [SEROTONIN]
Activity [22]: inhibitor [(at a rough estimate) 35 % of control]
Activity [23]: inhibitor [(at a rough estimate) 55 % of control]

Cc1cn([C@H]2C[C@H](N=[N+]=[N-])[C@@H](CO)O2)c(=O)[nH]c1=O [ZIDOVUDINE]
Activity [10]: is not a substrate [-]
Activity [2]: is not a substrate [-]
